Molecules are shown by their SMILES.

By IC50 is commonly meant the concentration needed to halve the response being measured.

The target of this experiment is Non-receptor tyrosine-protein kinase TYK2 (Homo sapiens, UniProt P29597).
Sequence of Non-receptor tyrosine-protein kinase TYK2 (P29597 whole entry): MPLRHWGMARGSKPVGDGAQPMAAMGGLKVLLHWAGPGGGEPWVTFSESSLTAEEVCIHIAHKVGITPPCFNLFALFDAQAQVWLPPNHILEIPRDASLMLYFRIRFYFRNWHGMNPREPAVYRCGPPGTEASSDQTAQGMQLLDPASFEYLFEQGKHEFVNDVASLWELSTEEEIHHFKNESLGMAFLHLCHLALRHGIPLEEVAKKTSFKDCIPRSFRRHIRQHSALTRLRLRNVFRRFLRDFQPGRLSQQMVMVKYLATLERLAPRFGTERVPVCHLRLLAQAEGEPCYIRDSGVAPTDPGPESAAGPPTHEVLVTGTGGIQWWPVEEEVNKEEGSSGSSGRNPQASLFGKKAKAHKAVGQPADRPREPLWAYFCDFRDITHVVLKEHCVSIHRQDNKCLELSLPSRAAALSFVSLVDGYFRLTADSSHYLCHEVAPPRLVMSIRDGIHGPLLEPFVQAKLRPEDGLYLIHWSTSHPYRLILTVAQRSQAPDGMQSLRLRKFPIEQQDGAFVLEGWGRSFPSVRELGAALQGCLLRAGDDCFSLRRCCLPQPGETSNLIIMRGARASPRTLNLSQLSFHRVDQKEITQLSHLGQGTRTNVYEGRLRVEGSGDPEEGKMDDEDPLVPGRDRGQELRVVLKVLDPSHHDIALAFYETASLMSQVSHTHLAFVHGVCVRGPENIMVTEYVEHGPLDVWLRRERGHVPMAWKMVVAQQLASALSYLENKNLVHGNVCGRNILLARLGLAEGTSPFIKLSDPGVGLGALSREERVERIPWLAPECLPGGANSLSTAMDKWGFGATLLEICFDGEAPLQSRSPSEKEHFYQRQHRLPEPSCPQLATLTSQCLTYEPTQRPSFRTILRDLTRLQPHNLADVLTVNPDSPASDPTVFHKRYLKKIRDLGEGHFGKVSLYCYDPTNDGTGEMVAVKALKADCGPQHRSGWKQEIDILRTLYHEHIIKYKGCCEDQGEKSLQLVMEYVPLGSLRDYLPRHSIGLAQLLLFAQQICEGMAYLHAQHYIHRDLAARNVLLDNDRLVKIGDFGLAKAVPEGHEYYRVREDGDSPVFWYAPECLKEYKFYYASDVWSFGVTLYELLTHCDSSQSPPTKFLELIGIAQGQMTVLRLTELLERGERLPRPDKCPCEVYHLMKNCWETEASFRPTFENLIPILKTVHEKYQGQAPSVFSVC
Description: Inhibition of TYK2 (unknown origin) using GFP-STAT1 as substrate incubated for 1 hrs by TR-FRET assay
Turning to `Clc1ccccc1CN1CCC(Nc2c(-c3cc[nH]c3)cnc3[nH]ccc23)CC1`, the IC50 is more than 10 µM.

`Clc1cccc(CN2CCC(Nc3c(-c4cc[nH]n4)cnc4[nH]ccc34)CC2)c1`: the 50% inhibitory concentration (IC50) was more than 10 µM.

In the case of `Clc1cccc(CN2CCC(Nc3c(-c4cn[nH]c4)cnc4[nH]ccc34)CC2)c1`, the IC50 is more than 10 µM.

With `N#Cc1ccc(CN2CCC(Nc3c(-c4cc[nH]c4)cnc4[nH]ccc34)CC2)cc1`, the IC50 is more than 10 µM.

As to `COc1cccc(CN2CCC(Nc3c(-c4cn[nH]c4)cnc4[nH]ccc34)CC2)c1`, the IC50 was more than 10 µM.

`N#Cc1ccccc1CN1CCC(Nc2c(-c3cc[nH]c3)cnc3[nH]ccc23)CC1` had an IC50 of 4.15 µM.

For the molecule `N#Cc1cccc(CN2CCC(Nc3c(-c4cc[nH]n4)cnc4[nH]ccc34)CC2)c1`, the IC50 is more than 10 µM.

`Clc1ccccc1CN1CCC(Nc2c(-c3cc[nH]n3)cnc3[nH]ccc23)CC1` had an IC50 of more than 10 µM.

Molecule `Clc1ccccc1CN1CCC(Nc2c(-c3cn[nH]c3)cnc3[nH]ccc23)CC1` yielded an IC50 of more than 10 µM.

Molecule `N#Cc1ccccc1CN1CCC(Nc2c(-c3cn[nH]c3)cnc3[nH]ccc23)CC1` had a concentration for half-maximal inhibition (IC50) of 0.0041 µM.

For `Clc1ccc(CN2CCC(Nc3c(-c4cc[nH]n4)cnc4[nH]ccc34)CC2)cc1`, the IC50 is more than 10 µM.

In the case of `Clc1cccc(CN2CCC(Nc3c(-c4cc[nH]c4)cnc4[nH]ccc34)CC2)c1`, the IC50 is more than 10 µM.

The molecule `N#Cc1ccccc1CN1CCC(Nc2c(-c3cc[nH]n3)cnc3[nH]ccc23)CC1` had an IC50 of 0.0013 µM.

In the case of `Clc1ccc(CN2CCC(Nc3c(-c4cn[nH]c4)cnc4[nH]ccc34)CC2)cc1`, the IC50 was more than 10 µM.

Turning to `COc1cccc(CN2CCC(Nc3c(-c4cc[nH]n4)cnc4[nH]ccc34)CC2)c1`, the IC50 was more than 10 µM.

In the case of `N#Cc1cccc(CN2CCC(Nc3c(-c4cc[nH]c4)cnc4[nH]ccc34)CC2)c1`, the IC50 was more than 10 µM.

The molecule `N#Cc1cccc(CN2CCC(Nc3c(-c4cn[nH]c4)cnc4[nH]ccc34)CC2)c1` displayed an IC50 of more than 10 µM.

For `Clc1ccc(CN2CCC(Nc3c(-c4cc[nH]c4)cnc4[nH]ccc34)CC2)cc1`, the IC50 is more than 10 µM.

Turning to `N#Cc1ccc(CN2CCC(Nc3c(-c4cc[nH]n4)cnc4[nH]ccc34)CC2)cc1`, the IC50 was more than 10 µM.

With `N#Cc1ccc(CN2CCC(Nc3c(-c4cn[nH]c4)cnc4[nH]ccc34)CC2)cc1`, the IC50 was more than 10 µM.

`COc1cccc(CN2CCC(Nc3c(-c4cc[nH]c4)cnc4[nH]ccc34)CC2)c1` came in with an IC50 of 0.504 µM.

The values above are taken from ChEMBL document CHEMBL5505972, “Design, synthesis and evaluation of C-5 substituted pyrrolopyridine derivatives as potent Janus Kinase 1 inhibitors with excellent selectivity” (Eur J Med Chem, 2024).
